The values below come from PubChem BioAssay (NCI).

Common to all, as to test: NCI-60 cell line screen, 48 h
Assay [1] relates to ACHN renal.
Assay [2] concerns HCT-15 colon.
Assay [3] has as its system COLO 205 colon.
For assay [4], the system named is SK-OV-3 ovarian.
Assay [5] concerns SR leukemia.
For assay [6], the system named is HCT-116 colon.
Assay [7] deals with HCC-2998 colon.
In assay [8] the test system is HOP-92 NSCLC.
Assay [9] has as its system LOX IMVI melanoma.
In assay [10] the test system is RPMI-8226 leukemia.
Assay [11] relates to BT-549 breast.
Assay [12] has as its system OVCAR-5 ovarian.
Assay [13] deals with OVCAR-4 ovarian.

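Tested at 5 concentrations; 48 h exposure; 96-well plates; endpoints linearly interpolated, else capped at highest concentration. TGI: total growth inhibition.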 Some results are limits rather than exact numbers.

As for `N=C(N)SC1c2ccccc2-c2cc([N+](=O)[O-])ccc21` (stereo unspecified), the TGI stood at 18.9 µM in [1]; 22.6 µM in assay [2]; 9.77 µM in assay [3]; 18.9 µM in assay [4]; 21.9 µM in assay [5]; 16.3 µM in assay [6]. The TGI in assay [7] was 9.84 µM; in assay [8], 33.5 µM; in assay [9] it was 22.1 µM; in assay [10], 30.1 µM; in assay [11], 19.3 µM; in assay [12], 26.7 µM. Moreover, in assay [13], the TGI was 17.3 µM.

For `CN[C@@H]1[C@H](O)[C@H](NC)[C@H]2O[C@@]3(O)C(=O)C[C@@H](C)O[C@H]3O[C@@H]2[C@H]1O`, the TGI in [1], in assay [2], in [3], in assay [4], in [5] and in assay [6] was more than 100 µM in each case. Moreover, the TGI in assay [7], in assay [8], in assay [9], in assay [10], in assay [11] and in [12] was more than 100 µM each time. Moreover, the TGI in assay [13] is more than 100 µM.
